{"source": "paper PMC4810081", "about": "“Venetoclax (ABT-199) Might Act as a Perpetrator in Pharmacokinetic Drug–Drug Interactions” (Pharmaceutics, 2016)", "key": {"[1]": {"target": "T1, CYP1A2 (Homo sapiens, UniProt P05177)", "T1 construct": "purchased Promega Corporation (Madison, WI, USA)", "T1 sequence (P05177 whole entry)": "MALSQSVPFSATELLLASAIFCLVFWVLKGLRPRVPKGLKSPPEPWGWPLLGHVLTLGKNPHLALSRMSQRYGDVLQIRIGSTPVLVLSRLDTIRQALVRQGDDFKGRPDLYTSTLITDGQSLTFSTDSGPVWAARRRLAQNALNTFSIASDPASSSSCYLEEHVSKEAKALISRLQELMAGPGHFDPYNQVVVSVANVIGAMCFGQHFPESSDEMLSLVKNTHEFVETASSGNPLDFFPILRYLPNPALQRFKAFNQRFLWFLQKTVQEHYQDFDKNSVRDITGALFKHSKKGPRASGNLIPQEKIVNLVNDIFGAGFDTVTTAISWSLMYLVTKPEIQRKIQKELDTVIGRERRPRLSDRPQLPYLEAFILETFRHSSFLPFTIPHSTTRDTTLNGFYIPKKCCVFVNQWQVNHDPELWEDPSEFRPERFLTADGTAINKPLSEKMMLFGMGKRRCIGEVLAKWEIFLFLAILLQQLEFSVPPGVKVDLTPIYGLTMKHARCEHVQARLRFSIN", "experiment": "CYP1A2 inhibition, P450-Glo CYP1A2 Screening System", "assay_type": "in vitro ADME", "details": "luciferin-ME substrate, 0.05–100 µM tested", "protocol": "(§1) Inhibition studies for CYP2B6, CYP2D6, CYP2C19 and CYP3A4 were performed with the CYP2B6/EFC, CYP2D6/AMMC, the CYP2C19/CEC, and the CYP3A4/BFC High Throughput Inhibitor Screening Kit according to the manufacturer’s instructions. The kits contain the respective recombinant CYP and fluorogenic substrates, which are blocked dyes emitting a fluorescence signal when cleaved by the enzyme. For testing CYP1A2 inhibition, the P450-Glo CYP1A2 Screening System was used according to the manufacturer’s instructions. The kit contains the luminogenic CYP1A2 substrate luciferin-ME, which is converted by CYP1A2 into luciferin-generating light when incubated with the luciferin detection reagent of the kit. Eight concentrations of venetoclax in duplicates (0.009–20 µM) were tested in the fluorescence assays, and eight concentrations in triplicate (0.05–100 µM) were tested for the luminogenic assay. Each experiment was conducted in triplicate."}, "[2]": {"target": "T2, CYP2B6 (Homo sapiens, UniProt P20813)", "T2 construct": "purchased Becton Dickinson Biosciences (Heidelberg, Germany)", "T2 sequence (P20813 whole entry)": "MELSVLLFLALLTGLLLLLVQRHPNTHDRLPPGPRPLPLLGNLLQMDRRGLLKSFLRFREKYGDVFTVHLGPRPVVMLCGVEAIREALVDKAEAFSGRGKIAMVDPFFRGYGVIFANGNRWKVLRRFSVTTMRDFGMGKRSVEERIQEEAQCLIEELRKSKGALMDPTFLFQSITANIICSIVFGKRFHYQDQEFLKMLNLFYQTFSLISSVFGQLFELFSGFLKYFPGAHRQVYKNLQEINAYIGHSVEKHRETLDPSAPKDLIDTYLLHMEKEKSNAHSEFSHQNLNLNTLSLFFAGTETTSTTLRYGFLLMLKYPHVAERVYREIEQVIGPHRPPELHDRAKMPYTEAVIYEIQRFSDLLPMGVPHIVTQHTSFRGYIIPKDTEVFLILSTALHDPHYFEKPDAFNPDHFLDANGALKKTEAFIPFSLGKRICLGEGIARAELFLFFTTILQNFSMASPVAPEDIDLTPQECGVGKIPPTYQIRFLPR", "experiment": "CYP2B6 inhibition, CYP2B6/EFC High Throughput Inhibitor Screening Kit", "assay_type": "in vitro ADME", "protocol": "as §1"}, "[3]": {"target": "T3, CYP3A4 (Homo sapiens, UniProt P08684)", "T3 construct": "purchased Becton Dickinson Biosciences (Heidelberg, Germany)", "T3 sequence (P08684 whole entry)": "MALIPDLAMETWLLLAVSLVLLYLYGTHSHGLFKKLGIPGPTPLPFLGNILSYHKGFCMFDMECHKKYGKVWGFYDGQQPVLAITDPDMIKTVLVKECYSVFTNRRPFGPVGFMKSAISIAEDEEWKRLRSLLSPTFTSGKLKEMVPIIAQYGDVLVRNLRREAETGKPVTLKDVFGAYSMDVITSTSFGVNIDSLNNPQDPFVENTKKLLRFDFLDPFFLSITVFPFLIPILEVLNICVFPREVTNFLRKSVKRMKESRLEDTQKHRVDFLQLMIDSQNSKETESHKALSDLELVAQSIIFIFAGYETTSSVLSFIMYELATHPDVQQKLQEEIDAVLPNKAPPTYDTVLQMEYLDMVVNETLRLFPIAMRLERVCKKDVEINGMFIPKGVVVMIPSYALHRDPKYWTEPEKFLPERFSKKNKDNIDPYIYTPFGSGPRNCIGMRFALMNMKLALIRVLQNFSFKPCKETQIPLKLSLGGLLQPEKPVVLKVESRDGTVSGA", "experiment": "CYP3A4 inhibition, CYP3A4/BFC High Throughput Inhibitor Screening Kit", "assay_type": "in vitro ADME", "details": "recombinant CYP, fluorogenic substrate", "protocol": "as §1"}, "[4]": {"experiment": "Growth inhibition assay in MDCKII-BCRP cells", "assay_type": "cell-based", "details": "dog, MDCKII-BCRP cells (BCRP over-expressing)", "protocol": "(§2) MDCKII cells. […] Moreover, MDCKII-BCRP cells were used to assess BCRP inhibition by venetoclax. MDCKII over-expressing cell lines were kindly provided by A. H. Schinkel and P. Borst (Amsterdam, The Netherlands). The parental cell line MDCKII (available at ATCC, Manassas, VA, USA) was used as a control. The cells were cultured in Dulbecco’s Modified Eagle’s Medium (DMEM) containing 10% FCS, 2 mM of glutamine, 100 U/mL of penicillin, and 100 µg/mL of streptomycin sulfate. Growth inhibition assays in LS180 cells were conducted to determine suitable maximum concentrations for the induction assay without profound antiproliferative effects. Proliferation was quantified by crystal violet staining of the surviving cells as described previously. […] Growth inhibition assays in MDCKII, and their MRP2 or BCRP over-expressing counterparts ([…], MDCKII-BCRP) and in LLC-PK1 and the corresponding P-gp over-expressing cell line L-MDR1 were conducted to evaluate whether venetoclax sustains its efficacy in MDR cell lines."}, "[5]": {"experiment": "Growth inhibition assay in MDCKII-MRP2 cells", "assay_type": "cell-based", "details": "dog, MDCKII-MRP2 cells (MRP2 over-expressing)", "protocol": "as §2"}, "[6]": {"test_system": "ABCB1", "experiment": "Induction assay, ABCB1 mRNA by real-time RT-PCR in LS180 cells", "assay_type": "in vitro ADME, human", "details": "four days, at higher concentrations", "protocol": "(§3) LS180 cells. The human colon adenocarcinoma cell line LS180 (available at ATCC, Manassas, VA, USA) is one of the standard models for investigating pregnane X receptor (PXR) and aryl hydrocarbon receptor (AhR) mediated induction and was thus used for induction experiments. Cells were cultured under standard cell culture conditions with DMEM supplemented with 10% FCS, 2 mM of glutamine, 100 U/mL of penicillin, 100 µg/mL of streptomycin sulfate, and 0.1 mM of nonessential amino acids.\n(§4) For the induction experiments, LS180 cells were seeded in 75 cm^2 culturing flasks and incubated for three days. […]\n(§5) RNA was isolated using the GenElute™ Mammalian Total RNA Miniprep Kit, and cDNA was synthesized with the RevertAid™ H Minus First Strand cDNA Synthesis Kit according to the manufacturer's instructions. mRNA expression was quantified by real-time RT-PCR with the LightCycler® 480 (Roche Applied Science, Mannheim, Germany) as described previously. […] Data were evaluated via calibrator-normalized relative quantification with efficiency correction using the LightCycler® 480 software version 1.5 (Roche Applied Science, Mannheim, Germany). […] The following target genes were quantified: CYP1A1, CYP1A2, CYP3A4, ABCB1, ABCC2, ABCG2, SLCO1B1 (coding for OATP1B1), UDP-glucuronosyltransferase 1A3 (UGT1A3), and UGT1A9."}, "[7]": {"test_system": "SLCO1B1", "experiment": "Induction assay, SLCO1B1 mRNA by real-time RT-PCR in LS180 cells", "assay_type": "in vitro ADME, human", "details": "four days, at 5 µM", "protocol": "as §3, §4, §5"}, "[8]": {"test_system": "ABCG2", "experiment": "Induction assay, ABCG2 mRNA by real-time RT-PCR in LS180 cells", "assay_type": "in vitro ADME, human", "details": "four days, 0.01–10 µM", "protocol": "as §3, §4, §5"}, "[9]": {"test_system": "ABCC2", "experiment": "Induction assay, ABCC2 mRNA by real-time RT-PCR in LS180 cells", "assay_type": "in vitro ADME, human", "details": "four days, 0.01–10 µM", "protocol": "as §3, §4, §5"}, "[10]": {"test_system": "P-gp", "experiment": "Western blot of P-gp protein expression in LS180 cells", "assay_type": "in vitro ADME, human", "details": "four days, at 1 and 10 µM", "protocol": "For the induction experiments, LS180 cells were seeded in 75 cm^2 culturing flasks and incubated for three days. Cells were then treated with a culture medium containing venetoclax (0.01–10 µM) in quintuplicate for four consecutive days. Rifampicin (20 µM) served as a positive control for PXR-driven genes and culture medium as a negative control. All incubation solutions were adjusted to 0.02% DMSO. After harvesting, cells were split for RNA and protein extraction.\nTo exemplarily verify the effects of venetoclax on mRNA expression, protein expressions of P-gp and CYP1A2 were analyzed in triplicate by SDS polyacrylamide gel electrophoresis (SDS-PAGE) and Western blotting. In brief, cell lysates containing 20 µg protein were mixed with 5× sample buffer (containing Tris–HCl, SDS, DTT, bromophenol blue, and glycerol) and subjected to 10% SDS-PAGE. Afterwards, proteins were electrotransferred to nitrocellulose nitrate membranes. Blots were blocked by incubation for 20–40 min with 5% Slim-Fast® (w/v) in phosphate-buffered saline containing 0.1% Tween®20. […] Bands were visualized by enhanced chemiluminescence using the SuperSignal®West Pico Chemiluminescent Substrate Kit and recorded by FluorChem Q SA AlphaView Version 3.2.2, Cell Biosciences (Santa Clara, CA, USA)."}, "[11]": {"experiment": "Intestinal concentration by FDA formula", "details": "after a dose of 250 mg, according to FDA formula (dose/250 mL)", "protocol": "Thus, the question of whether these effects will also play a role in the clinical situation arises. Therapeutic plasma concentrations of venetoclax reach about 5 µM [3, 34, 35], a similar range to concentrations inhibiting drug transporters and CYP in vitro. […] Thus, even the moderate inhibition of P-gp by venetoclax might be relevant and should be tested in vivo."}}}
{"smiles": "CC1(C)CCC(CN2CCN(c3ccc(C(=O)NS(=O)(=O)c4ccc(NCC5CCOCC5)c([N+](=O)[O-])c4)c(Oc4cnc5[nH]ccc5c4)c3)CC2)=C(c2ccc(Cl)cc2)C1", "note": "[Venetoclax]", "values": [{"measurement": "IC50 CYP1A2 inhibition", "setting": "[1]", "value": "no inhibition"}, {"measurement": "increase of CYP2B6 activity", "setting": "[2]; at 20 µM", "value": 1.7, "unit": "fold"}, {"measurement": "IC50 CYP2B6 inhibition", "setting": "[2]; recombinant CYP, fluorogenic substrate, 0.009–20 µM tested", "value": "activation"}, {"measurement": "IC50", "setting": "[3]", "value": "7.2 ± 3.2", "unit": "µM"}, {"measurement": "IC50", "setting": "[4]", "value": "15.7 ± 0.4", "unit": "µM"}, {"measurement": "IC50", "setting": "[5]", "value": "17.2 ± 1.8", "unit": "µM"}, {"measurement": "mRNA expression of ABCB1", "setting": "[6]", "value": "suppressed"}, {"measurement": "mRNA expression of SLCO1B1", "setting": "[7]", "value": "suppressed"}, {"measurement": "mRNA expression of ABCG2", "setting": "[8]", "value": "unchanged"}, {"measurement": "mRNA expression of ABCC2", "setting": "[9]", "value": "unchanged"}, {"measurement": "P-gp protein expression", "setting": "[10]", "value": "suppression"}, {"measurement": "concentration reached in the intestine", "setting": "[11]", "value": "about 1 mM"}]}
